Measured values as given in patent US10428083B2, “Heterocyclylmethyl-thienouracile as antagonists of the adenosine-A2B-receptor” (BAYER PHARMA AKTIENGESELLSCHAFT, priority 2015, dated 2019).

Biological target: human adenosine A2b receptor (Homo sapiens (Human), UniProt P29275)
Assay: Cellular in vitro reporter gene test for A2b receptor activity (CHO-K1, CRE-luciferase, NECA stimulation)
Format: cell-based
Details: recombinant CHO-K1 cell line, CRE-luciferase reporter, antagonism of EC50 concentration of NECA; in some cases means of several determinations, rounded to two significant figures; read-out: A2b receptor IC50
Outline: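 CHO-K1 cells with CRE-driven luciferase; antagonists co-incubated with NECA at its EC50, determined in a pre-experiment on each test day. Luciferase read by luminescence 3 h after NECA addition.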

Sequence of human adenosine A2b receptor (P29275 whole entry): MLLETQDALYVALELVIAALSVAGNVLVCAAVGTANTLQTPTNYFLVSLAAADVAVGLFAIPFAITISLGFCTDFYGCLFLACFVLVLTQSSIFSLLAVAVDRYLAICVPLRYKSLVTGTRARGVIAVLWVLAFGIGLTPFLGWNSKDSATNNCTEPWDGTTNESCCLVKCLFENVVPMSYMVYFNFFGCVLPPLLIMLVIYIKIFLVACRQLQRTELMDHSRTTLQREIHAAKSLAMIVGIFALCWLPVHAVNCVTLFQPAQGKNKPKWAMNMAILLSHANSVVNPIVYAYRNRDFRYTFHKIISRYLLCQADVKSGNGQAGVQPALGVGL

How did the IC50 turn out when `Cc1c(CN2CCNC2=O)sc2c1c(=O)n(CC(C)C)c(=O)n2CC1CCCO1` (single isomer, unassigned) [Example 198, 3-Isobutyl-5-methyl-6-[(2-oxoimidazolidin-1-yl)methyl]-1-(tetrahydrofuran-2-ylmethyl)thieno[2,3-d]pyrimidine-2,4(1H,3H)-dione] was run?
Its IC50 is 8.9 nM.

With `Cc1c(CN2CCNC2=O)sc2c1c(=O)n(CC(F)(F)F)c(=O)n2CC1CCO1` (single isomer, unassigned) [Example 207, 5-Methyl-1-(oxetan-2-ylmethyl)-6-[(2-oxoimidazolidin-1-yl)methyl]-3-(2,2,2-trifluoroethyl)thieno[2,3-d]pyrimidine-2,4(1H,3H)-dione] as the compound, how does the IC50 read?
Its IC50 is 43 nM.

How did the IC50 turn out when `Cc1c(CN2CCNC2=O)sc2c1c(=O)n(CC(F)(F)F)c(=O)n2CC1CCO1` (single isomer, unassigned) [Example 208, 5-Methyl-1-(oxetan-2-ylmethyl)-6-[(2-oxoimidazolidin-1-yl)methyl]-3-(2,2,2-trifluoroethyl)thieno[2,3-d]pyrimidine-2,4(1H,3H)-dione] was run?
The IC50 was 8.9 nM.

Which IC50 does the source give for `Cc1c(CN2CCNC2=O)sc2c1c(=O)n(CC(F)(F)F)c(=O)n2CC1CCCO1` (single isomer, unassigned) [Example 210, 5-Methyl-6-[(2-oxoimidazolidin-1-yl)methyl]-1-(tetrahydrofuran-2-ylmethyl)-3-(2,2,2-trifluoroethyl)thieno[2,3-d]pyrimidine-2,4(1H,3H)-dione] here?
Its IC50 is 9.1 nM.

Which IC50 does the source give for `Cc1c(CN2CCNC2=O)sc2c1c(=O)n(CC(F)(F)F)c(=O)n2CC1CCCO1` (single isomer, unassigned) [Example 211, 5-Methyl-6-[(2-oxoimidazolidin-1-yl)methyl]-1-(tetrahydrofuran-2-ylmethyl)-3-(2,2,2-trifluoroethyl)thieno[2,3-d]pyrimidine-2,4(1H,3H)-dione] here?
Its IC50 is 17 nM.

How did the IC50 turn out when `Cc1c(CN2CCNC2=O)sc2c1c(=O)n(CC(F)F)c(=O)n2CC1CCO1` (single isomer, unassigned) [Example 217, 3-(2,2-Difluoroethyl)-5-methyl-1-(oxetan-2-ylmethyl)-6-[(2-oxoimidazolidin-1-yl)methyl]thieno[2,3-d]pyrimidine-2,4(1H,3H)-dione] was run?
The IC50 was 79 nM.

With `Cc1c(CN2CCNC2=O)sc2c1c(=O)n(CC(F)F)c(=O)n2CC1CCO1` (single isomer, unassigned) [Example 218, 3-(2,2-Difluoroethyl)-5-methyl-1-(oxetan-2-ylmethyl)-6-[(2-oxoimidazolidin-1-yl)methyl]thieno[2,3-d]pyrimidine-2,4(1H,3H)-dione] as the compound, how does the IC50 read?
Its IC50 is 22 nM.

With `Cc1c(CN2CCNC2=O)sc2c1c(=O)n(CC(F)F)c(=O)n2CC1CCCO1` (single isomer, unassigned) [Example 220, 3-(2,2-Difluoroethyl)-5-methyl-6-[(2-oxoimidazolidin-1-yl)methyl]-1-(tetrahydrofuran-2-ylmethyl)thieno[2,3-d]pyrimidine-2,4(1H,3H)-dione] as the compound, how does the IC50 read?
The IC50 was 15 nM.

With `Cc1c(CN2CCNC2=O)sc2c1c(=O)n(CC(F)F)c(=O)n2CC1CCCO1` (single isomer, unassigned) [Example 221, 3-(2,2-Difluoroethyl)-5-methyl-6-[(2-oxoimidazolidin-1-yl)methyl]-1-(tetrahydrofuran-2-ylmethyl)thieno[2,3-d]pyrimidine-2,4(1H,3H)-dione] as the compound, how does the IC50 read?
The IC50 was 29 nM.

`COCCn1c(=O)n(CC(C)OC)c(=O)c2c(C)c(CN3CCNC3=O)sc21` (single isomer, unassigned) [Example 234, 1-(2-Methoxyethyl)-3-(2-methoxypropyl)-5-methyl-6-[(2-oxoimidazolidin-1-yl)methyl]thieno[2,3-d]pyrimidine-2,4(1H,3H)-dione] was tested. Which IC50 did it give?
The IC50 was 7.8 nM.

For `COCCn1c(=O)n(CC(C)OC)c(=O)c2c(C)c(CN3CCNC3=O)sc21` (single isomer, unassigned) [Example 235, 1-(2-Methoxyethyl)-3-(2-methoxypropyl)-5-methyl-6-[(2-oxoimidazolidin-1-yl)methyl]thieno[2,3-d]pyrimidine-2,4(1H,3H)-dione], which IC50 is on record?
Its IC50 is 38 nM.

Which IC50 does the source give for `CCn1c(=O)c2c(C)c(Cn3cc[nH]c3=O)sc2n(CC2CCCO2)c1=O` (single isomer, unassigned) [Example 243, 3-Ethyl-5-methyl-6-[(2-oxo-2,3-dihydro-1H-imidazol-1-yl)methyl]-1-(tetrahydrofuran-2-ylmethyl)thieno[2,3-d]pyrimidine-2,4(1H,3H)-dione] here?
Its IC50 is 14 nM.

How did the IC50 turn out when `CCn1c(=O)c2c(C)c(Cn3cc[nH]c3=O)sc2n(CC2CCCO2)c1=O` (single isomer, unassigned) [Example 244, 3-Ethyl-5-methyl-6-[(2-oxo-2,3-dihydro-1H-imidazol-1-yl)methyl]-1-(tetrahydrofuran-2-ylmethyl)thieno[2,3-d]pyrimidine-2,4(1H,3H)-dione] was run?
Its IC50 is 13 nM.

How did the IC50 turn out when `Cc1c(Cn2cc[nH]c2=O)sc2c1c(=O)n(C(C)C)c(=O)n2CC1CCCO1` (single isomer, unassigned) [Example 248, 3-Isopropyl-5-methyl-6-[(2-oxo-2,3-dihydro-1H-imidazol-1-yl)methyl]-1-(tetrahydrofuran-2-ylmethyl)thieno[2,3-d]pyrimidine-2,4(1H,3H)-dione] was run?
The IC50 was 5.1 nM.

With `Cc1c(Cn2cc[nH]c2=O)sc2c1c(=O)n(C(C)C)c(=O)n2CC1CCCO1` (single isomer, unassigned) [Example 249, 3-Isopropyl-5-methyl-6-[(2-oxo-2,3-dihydro-1H-imidazol-1-yl)methyl]-1-(tetrahydrofuran-2-ylmethyl)thieno[2,3-d]pyrimidine-2,4(1H,3H)-dione] as the compound, how does the IC50 read?
Its IC50 is 41 nM.

`CCn1c(=O)c2c(C)c(CN3CCNC3=NC#N)sc2n(CC2CCO2)c1=O` (single isomer, unassigned) [Example 257, [1-{[3-Ethyl-5-methyl-1-(oxetan-2-ylmethyl)-2,4-dioxo-1,2,3,4-tetrahydrothieno[2,3-d]pyrimidin-6-yl]methyl}imidazolidin-2-ylidene]cyanamide] was tested. Which IC50 did it give?
Its IC50 is 7.1 nM.

How did the IC50 turn out when `CCn1c(=O)c2c(C)c(CN3CCNC3=NC#N)sc2n(CC2CCO2)c1=O` (single isomer, unassigned) [Example 258, [1-{[3-Ethyl-5-methyl-1-(oxetan-2-ylmethyl)-2,4-dioxo-1,2,3,4-tetrahydrothieno[2,3-d]pyrimidin-6-yl]methyl}imidazolidin-2-ylidene]cyanamide] was run?
The IC50 was 33 nM.

Which IC50 does the source give for `CCn1c(=O)c2c(C)c(CN3CCNC3=NC#N)sc2n(CC2CCCO2)c1=O` (single isomer, unassigned) [Example 260, [1-{[3-Ethyl-5-methyl-2,4-dioxo-1-(tetrahydrofuran-2-ylmethyl)-1,2,3,4-tetrahydrothieno[2,3-d]pyrimidin-6-yl]methyl}imidazolidin-2-ylidene]cyanamide] here?
The IC50 was 2.2 nM.

For `CCn1c(=O)c2c(C)c(CN3CCNC3=NC#N)sc2n(CC2CCCO2)c1=O` (single isomer, unassigned) [Example 261, [1-{[3-Ethyl-5-methyl-2,4-dioxo-1-(tetrahydrofuran-2-ylmethyl)-1,2,3,4-tetrahydrothieno[2,3-d]pyrimidin-6-yl]methyl}imidazolidin-2-ylidene]cyanamide], which IC50 is on record?
The IC50 was 9.9 nM.

Which IC50 does the source give for `Cc1c(CN2CCNC2=NC#N)sc2c1c(=O)n(C(C)C)c(=O)n2CC1CCO1` (single isomer, unassigned) [Example 265, [1-{[3-Isopropyl-5-methyl-1-(oxetan-2-ylmethyl)-2,4-dioxo-1,2,3,4-tetrahydrothieno[2,3-d]pyrimidin-6-yl]methyl}imidazolidin-2-ylidene]cyanamide] here?
The IC50 was 14 nM.

Which IC50 does the source give for `Cc1c(CN2CCNC2=NC#N)sc2c1c(=O)n(C(C)C)c(=O)n2CC1CCO1` (single isomer, unassigned) [Example 266, [1-{[3-Isopropyl-5-methyl-1-(oxetan-2-ylmethyl)-2,4-dioxo-1,2,3,4-tetrahydrothieno[2,3-d]pyrimidin-6-yl]methyl}imidazolidin-2-ylidene]cyanamide] here?
The IC50 was 75 nM.

How did the IC50 turn out when `Cc1c(Cn2[nH]ccc2=O)sc2c1c(=O)n(CC(F)(F)F)c(=O)n2CC1CCCO1` (single isomer, unassigned) [Example 285, 5-Methyl-6-[(5-oxo-2,5-dihydro-1H-pyrazol-1-yl)methyl]-1-(tetrahydrofuran-2-ylmethyl)-3-(2,2,2-trifluoroethyl)thieno[2,3-d]pyrimidine-2,4(1H,3H)-dione] was run?
Its IC50 is 91 nM.

For `Cc1c(Cn2[nH]ccc2=O)sc2c1c(=O)n(CC(F)(F)F)c(=O)n2CC1CCCO1` (single isomer, unassigned) [Example 286, 5-Methyl-6-[(5-oxo-2,5-dihydro-1H-pyrazol-1-yl)methyl]-1-(tetrahydrofuran-2-ylmethyl)-3-(2,2,2-trifluoroethyl)thieno[2,3-d]pyrimidine-2,4(1H,3H)-dione], which IC50 is on record?
Its IC50 is 220 nM.

`COCCn1c(=O)c2c(C)c(Cn3[nH]ccc3=O)sc2n(CC2CCCO2)c1=O` (single isomer, unassigned) [Example 290, 3-(2-Methoxyethyl)-5-methyl-6-[(5-oxo-2,5-dihydro-1H-pyrazol-1-yl)methyl]-1-(tetrahydrofuran-2-ylmethyl)thieno[2,3-d]pyrimidine-2,4(1H,3H)-dione] was tested. Which IC50 did it give?
The IC50 was 400 nM.

For `COCCn1c(=O)c2c(C)c(Cn3[nH]ccc3=O)sc2n(CC2CCCO2)c1=O` (single isomer, unassigned) [Example 291, 3-(2-Methoxyethyl)-5-methyl-6-[(5-oxo-2,5-dihydro-1H-pyrazol-1-yl)methyl]-1-(tetrahydrofuran-2-ylmethyl)thieno[2,3-d]pyrimidine-2,4(1H,3H)-dione], which IC50 is on record?
Its IC50 is 190 nM.

Which IC50 does the source give for `Cc1c(CN2CCNC2=S)sc2c1c(=O)n(CC(F)(F)F)c(=O)n2CC1CCCO1` (single isomer, unassigned) [Example 299, 5-Methyl-1-(tetrahydrofuran-2-ylmethyl)-6-[(2-thioxoimidazolidin-1-yl)methyl]-3-(2,2,2-trifluoroethyl)thieno[2,3-d]pyrimidine-2,4(1H,3H)-dione] here?
Its IC50 is 5.6 nM.
